Laboratory results from patent US4820717A, “Antimicrobial aromatic derivatives substituted by an (omega amino) alkanol group and compositions containing them” (priority 1985, dated 1989).
Values after ≈ are worked out from the molar mass of the structure shown.

What was measured:
[1] = tested on: Escherichia Coli CNCM 54125; experiment: Bactericidal activity (MBC), strain 1; type: cell-based; conditions: 20 min, strain 1, 20 minutes of contact, read-out: Minimum bactericidal concentration (MBC)
Text: (§1) The bactericidal activity of the products according to the invention has been analyzed on various strains by the method described hereafter:
(§2) A bacterial inoculum is placed in contact with different dilutions of the product to be tested, and this for a limited period of time. At the end of contact, an aliquot part of the mixture bacterial suspension/product is deposited on the surface of an agar culture medium containing an agent neutralizing the antibacterial activity of the product. The bactericidal concentration retained is the smallest concentration of the product from which bacteria stop growing. Said concentration is expressed in μg/ml.
(§3) The bacterial strains selected for the analysis are:
1--Escherichia Coli CNCM 54125;
(§4) The second strain is supported on a Worgel Fergusson medium, the other strains being supported on Tryptic Soy Agar-Difco (TSA) commercialized by Difco.
(§5) After a 24-hour culture period at 37° C., the microbial growth is collected by means of glass beads and of 10 ml of diluent containing 1 g of tryptone and 8.5 g of sodium chloride in 1000 ml of distilled water. The formed suspension is stirred and the percentage of light transmission at 620 nm is measured with a spectrophotometer:
(§6) The bacterial inoculum corresponds to a 1/20th dilution of this bacterial suspension.
(§7) Plates equipped with cupules receive different dilutions of the product to be analyzed. These dilutions are placed in contact with the different bacterial suspensions by means of a multiple-center inoculator. After 20 minutes of contact, aliquot parts are transferred by means of said inoculator on the surface of an agar medium (TSA) in Petri dishes, containing an activity-neutralizing agent, namely 20 g of lubrol W, 25 g of Tween 80 and 2.5 g of sodium thiosulfate in 1000 ml of TSA (Difco). The efficiency of the neutralizing agent is controlled for each product to be analyzed by depositing on the surface of the culture medium an aliquot part of the dilution of the product to be analyzed. After drying, the corresponding inoculum is deposited in the same place. An inoculum control is performed on an agar medium with or without neutralizing agent. Readings are taken after 48 hours of incubation at 37° C.

[2] = tested on: Encapsulated klebsiella pneumoniae R030; experiment: Bactericidal activity (MBC), strain 2; type: cell-based; conditions: 20 min, strain 2, 20 minutes of contact, read-out: Minimum bactericidal concentration (MBC)
Text: as §1, §2, §3
2--Encapsulated klebsiella pneumoniae R030;
as §4, §5, §6, §7

[3] = tested on: Pseudomonas aeruginosa CNCM A22; experiment: Bactericidal activity (MBC), strain 3; type: cell-based; conditions: CNCMA22, 20 min, strain 3, 20 minutes of contact, read-out: Minimum bactericidal concentration (MBC)
Text: as §1, §2, §3
3--Pseudomonas aeruginosa CNCM A22;
as §4, §5, §6, §7

[4] = tested on: Streptococcus faecalis CNCM 5855; experiment: Bactericidal activity (MBC), strain 4; type: cell-based; conditions: Enterococcus faecalis, CNCM5855, 20 min; strain 4, 20 minutes of contact; read-out: Minimum bactericidal concentration (MBC)
Text: as §1, §2, §3
4--Streptococcus faecalis CNCM 5855;
as §4, §5, §6, §7

[5] = tested on: Staphylococcus aureus CNCM 53154; experiment: Bactericidal activity (MBC), strain 5; type: cell-based; conditions: CNCM53154, 20 min, strain 5, 20 minutes of contact, read-out: Minimum bactericidal concentration (MBC)
Text: as §1, §2, §3
5--Staphylococcus aureus CNCM 53154.
as §4, §5, §6, §7

[6] = tested on: Candida albicans CNCM 1180; experiment: Antifungal activity (MFC), strain 1; type: cell-based; conditions: 20 min; yeast strain 1; read-out: Minimum fongicidal concentration (MFC)
Text: as §2, §7
(§8) The antifungal activity of the products according to the invention was also determined with the aforedescribed method.
(§9) The fungal strains selected for the analysis are:
1--Candida albicans CNCM 1180;
(§10) These strains are supported on a Sabouraud Dextrose agar medium commercialized by Difco; the technique used is the same as that used in the analysis of the antibacterial activity. After 48 hours of culture at 37° C., the microbial growth is collected with glass beads and 5 ml of diluent containing 1 g of tryptone and 8.5 g of sodium chloride in 1000 ml of distilled water; 5 ml of the diluent are then added. […] A 1/100th dilution of this suspension, observed between slides under a microscope 40-lens, should show 10 cells per frame, this corresponding to 1,000,000 yeasts per ml.

Candida tropicalis 3834 = experiment: Antifungal activity (MFC), strain 2; type: cell-based; conditions: 20 min; yeast strain 2; read-out: Minimum fongicidal concentration (MFC)
Text: as §2, §7, §8, §9
2--Candida tropicalis 3834;
as §10

Candida parakruzei 3918 = experiment: Antifungal activity (MFC), strain 3; type: cell-based; conditions: 20 min; yeast strain 3; read-out: Minimum fongicidal concentration (MFC)
Text: as §2, §7, §8, §9
3--Candida parakruzei 3918;
as §10

[7] = tested on: Torulopsis glabrata 072023; experiment: Antifungal activity (MFC), strain 4; type: cell-based; conditions: 20 min; yeast strain 4; read-out: Minimum fongicidal concentration (MFC)
Text: as §2, §7, §8, §9, §10

[8] = Acute toxicity by oral route in mice; conditions: mouse, in vivo, per os, male CD1 mice, 14 days observation
Description: Acute toxicity was tested by oral route in mice. This test was carried out with male mice of CD1 strain, obtained from the Charles Reever breeding farm. Each batch was composed of 5 animals of body weight varying between 24 and 30 g kept in the same cage. The animals were kept fasting for 6 hours before the treatment. For every test, the product, placed in suspension in a 10% solution of gum arabic, was administered by forcible feeding with an oesophageal probe. Food was then served to the animals 4 hours after the forcible feeding and the animals were kept under observation for a period of 14 days after the administration. During that period, the death rate is recorded for each batch of animals used in the experiment and, wherever possible, the LD50 is determined by the method of J. T. Litchfield and F. Wilcoxon, J. Pharmacol. 1949, 95, 99-113.
The results are given in mg of substance tested per kg of body weight. They are compiled in Table III below.

CCC(CO)(CCN1CCCCC1)c1cccc2ccccc12.Cl (centres unmarked) [SR 43 245 A, 2-ethyl-2-(1-naphthyl)-4-piperidino-butanol hydrochloride]
MBC [1]: 1500 mg/L | MBC [2]: 1000 mg/L | MBC [3]: 800 mg/L | MBC [4]: 1500 mg/L | MBC [5]: 1000 mg/L

OCC(CCN(C1CCCCC1)C1CCCCC1)c1cccc2ccccc12 (centres unmarked) [SR 44 227 A]
MBC [1]: 100 mg/L (≈ 263 µM) | MBC [2]: 300 mg/L (≈ 790 µM) | MBC [3]: 500 mg/L (≈ 1320 µM) | MBC [4]: 100 mg/L (≈ 263 µM) | MBC [5]: 500 mg/L (≈ 1320 µM)

CC1CCN(CCC(CO)c2cccc3ccccc23)CC1 (centres unmarked) [SR 43 382 A]
MBC [1]: 5000 mg/L (≈ 16800 µM) | MBC [2]: 2000 mg/L (≈ 6720 µM) | MBC [3]: 2000 mg/L (≈ 6720 µM) | MBC [4]: 5000 mg/L (≈ 16800 µM) | MBC [5]: 2000 mg/L (≈ 6720 µM) | MFC [6]: 5000 mg/L (≈ 16800 µM) | MFC (Candida tropicalis 3834): 1000 mg/L (≈ 3360 µM) | MFC (Candida parakruzei 3918): 2000 mg/L (≈ 6720 µM) | MFC [7]: 10000 mg/L (≈ 33600 µM)

OCC(CCN1CCCC1)c1cccc2ccccc12 (centres unmarked) [SR 43 063 A]
MBC [1]: 2000 mg/L (≈ 7420 µM) | MBC [2]: 1000 mg/L (≈ 3710 µM) | MBC [3]: 1000 mg/L (≈ 3710 µM) | MBC [4]: 2000 mg/L (≈ 7420 µM) | MBC [5]: 1000 mg/L (≈ 3710 µM) | LD50 at 336 h [8]: 300 to 400 mg/kg

CN(C)CCCC(CO)c1cccc2ccccc12 (centres unmarked) [SR 42 994 A]
MBC [1]: 1000 mg/L (≈ 3890 µM) | MBC [2]: 800 mg/L (≈ 3110 µM) | MBC [3]: 1000 mg/L (≈ 3890 µM) | MBC [4]: 1000 mg/L (≈ 3890 µM) | MBC [5]: 1000 mg/L (≈ 3890 µM) | MFC [6]: 500 mg/L (≈ 1940 µM) | MFC (Candida tropicalis 3834): 500 mg/L (≈ 1940 µM) | MFC (Candida parakruzei 3918): 500 mg/L (≈ 1940 µM) | MFC [7]: 5000 mg/L (≈ 19400 µM) | LD50 at 336 h [8]: 750 to 1000 mg/kg

OCC(CCN1CCCCCC1)c1cccc2ccccc12 (centres unmarked) [SR 43 155 A]
MBC [1]: 500 mg/L (≈ 1680 µM) | MBC [2]: 500 mg/L (≈ 1680 µM) | MBC [3]: 200 mg/L (≈ 672 µM) | MBC [4]: 500 mg/L (≈ 1680 µM) | MBC [5]: 500 mg/L (≈ 1680 µM) | MFC [6]: 500 mg/L (≈ 1680 µM) | MFC (Candida tropicalis 3834): 500 mg/L (≈ 1680 µM) | MFC (Candida parakruzei 3918): 500 mg/L (≈ 1680 µM) | MFC [7]: 2000 mg/L (≈ 6720 µM) | LD50 at 336 h [8]: < 500 mg/kg

OCC(CCN1CCC(Cc2ccccc2)CC1)c1ccc(-c2ccccc2)cc1 (centres unmarked) [SR 44 029 A]
MBC [1]: 10 mg/L (≈ 25 µM) | MBC [2]: 50 mg/L (≈ 125 µM) | MBC [3]: 50 mg/L (≈ 125 µM) | MBC [4]: 50 mg/L (≈ 125 µM) | MBC [5]: 50 mg/L (≈ 125 µM) | MFC [6]: 50 mg/L (≈ 125 µM) | MFC (Candida tropicalis 3834): 50 mg/L (≈ 125 µM) | MFC (Candida parakruzei 3918): 50 mg/L (≈ 125 µM) | MFC [7]: 100 mg/L (≈ 250 µM)

OCC(CCCCCN1CCC(Cc2ccccc2)CC1)c1cccc2ccccc12 (centres unmarked) [SR 43 941 A]
MBC [1]: 50 mg/L (≈ 120 µM) | MBC [2]: 50 mg/L (≈ 120 µM) | MBC [3]: 50 mg/L (≈ 120 µM) | MBC [4]: 50 mg/L (≈ 120 µM) | MBC [5]: 50 mg/L (≈ 120 µM) | MFC [6]: 100 mg/L (≈ 241 µM) | MFC (Candida tropicalis 3834): 100 mg/L (≈ 241 µM) | MFC (Candida parakruzei 3918): 250 mg/L (≈ 602 µM) | MFC [7]: 250 mg/L (≈ 602 µM)

OCC(CCN1CCC(Cc2ccccc2)CC1)c1ccc(Cl)cc1Cl (centres unmarked) [SR 44 027 A]
MBC [1]: 50 mg/L (≈ 127 µM) | MBC [2]: 50 mg/L (≈ 127 µM) | MBC [3]: 100 mg/L (≈ 255 µM) | MBC [4]: 100 mg/L (≈ 255 µM) | MBC [5]: 200 mg/L (≈ 510 µM) | MFC [6]: 250 mg/L (≈ 637 µM) | MFC (Candida tropicalis 3834): 250 mg/L (≈ 637 µM) | MFC (Candida parakruzei 3918): 500 mg/L (≈ 1270 µM) | MFC [7]: 250 mg/L (≈ 637 µM) | LD50 at 336 h [8]: 1000 to 1200 mg/kg

OCC(CCCN1CCN(c2ccccc2)CC1)c1ccccc1 (centres unmarked) [SR 43 970 A, reference compound]
MBC [1]: 5000 mg/L (≈ 15400 µM) | MBC [2]: 5000 mg/L (≈ 15400 µM) | MBC [3]: 2000 mg/L (≈ 6160 µM) | MBC [4]: 10000 mg/L (≈ 30800 µM) | MBC [5]: 5000 mg/L (≈ 15400 µM)

Cc1cccc(C(CO)CCN2CCC(Cc3ccccc3)CC2)c1 (centres unmarked) [SR 44 226 A]
MBC [1]: 1000 mg/L (≈ 2960 µM) | MBC [2]: 1000 mg/L (≈ 2960 µM) | MBC [3]: 500 mg/L (≈ 1480 µM) | MBC [4]: 1000 mg/L (≈ 2960 µM) | MBC [5]: 2000 mg/L (≈ 5930 µM)

CCN(CC)CCC(CO)c1cccc2ccccc12.Cl (centres unmarked) [SR 42 989 A, 4-(N,N-diethylamino)-2-(1-naphthyl)-butanol hydrochloride]
MBC [1]: 1500 mg/L | MBC [2]: 1500 mg/L | MBC [3]: 1500 mg/L | MBC [4]: 2000 mg/L | MBC [5]: 1500 mg/L | LD50 at 336 h [8]: 300 to 400 mg/kg
